From patent US8987207B2, “Peptides which have analgesic effects and which inhibit ASIC channels” (Centre National de la Recherche Scientifique—CNRS, priority 2010, dated 2015)
pIC50: −log10 of the molar value. Bridges are numbered along the chain shown (N, C = ends). Where no end group is shown, it is not given here.

Key:
[1] = target: T1, rat heteromeric ASIC1a+ASIC3 channels (Rattus norvegicus, UniProt O35240+P55926); conditions: read-out: concentration inhibiting 50% of the current produced by rat heteromeric ASIC1a+ASIC3 channels; cited from earlier work
T1 sequence (P55926 1-526): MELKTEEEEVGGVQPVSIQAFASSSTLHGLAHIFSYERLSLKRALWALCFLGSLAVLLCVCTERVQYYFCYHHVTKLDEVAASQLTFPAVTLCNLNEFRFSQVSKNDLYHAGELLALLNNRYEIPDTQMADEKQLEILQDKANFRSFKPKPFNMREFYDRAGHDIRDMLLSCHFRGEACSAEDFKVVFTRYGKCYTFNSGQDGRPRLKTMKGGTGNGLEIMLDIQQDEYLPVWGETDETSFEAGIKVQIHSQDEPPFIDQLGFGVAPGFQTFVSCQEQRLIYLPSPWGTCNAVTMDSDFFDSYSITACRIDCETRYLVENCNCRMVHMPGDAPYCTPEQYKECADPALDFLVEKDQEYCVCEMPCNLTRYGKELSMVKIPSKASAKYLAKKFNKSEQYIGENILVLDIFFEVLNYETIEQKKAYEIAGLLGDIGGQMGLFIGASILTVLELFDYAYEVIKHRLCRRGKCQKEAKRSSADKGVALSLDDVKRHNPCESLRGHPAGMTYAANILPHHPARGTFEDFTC
T1 sequence (O35240 1-533): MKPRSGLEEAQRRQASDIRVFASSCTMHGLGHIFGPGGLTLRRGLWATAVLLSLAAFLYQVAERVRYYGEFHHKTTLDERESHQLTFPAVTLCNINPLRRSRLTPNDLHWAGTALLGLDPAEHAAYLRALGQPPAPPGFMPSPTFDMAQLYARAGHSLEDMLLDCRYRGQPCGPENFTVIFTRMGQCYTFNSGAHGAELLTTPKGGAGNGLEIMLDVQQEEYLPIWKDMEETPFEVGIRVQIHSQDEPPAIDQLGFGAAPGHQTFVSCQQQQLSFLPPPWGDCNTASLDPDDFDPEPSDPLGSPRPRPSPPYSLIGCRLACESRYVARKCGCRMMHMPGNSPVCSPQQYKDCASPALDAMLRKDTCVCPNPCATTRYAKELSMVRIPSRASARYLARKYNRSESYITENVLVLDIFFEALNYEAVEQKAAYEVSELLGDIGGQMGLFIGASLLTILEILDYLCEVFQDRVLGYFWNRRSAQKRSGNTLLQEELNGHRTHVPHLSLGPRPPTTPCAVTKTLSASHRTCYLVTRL

[2] = rats, cited from earlier work
[3] = Toxicity after intrathecal injection; format: in vivo; conditions: mice
[4] = Accelerating rotarod test (motor activity) after intrathecal injection; format: in vivo; conditions: mice, IT injection, compared with vehicle, ANOVA
Description: The effects of the ASICalgin-1 peptide on motor activity were evaluated by means of the accelerating rotarod test. The mice were placed on an axle rotating at four rotations per minute (rpm) which undergoes a constant acceleration of 5 rpm per minute up to 40 rpm. The latency to fall is measured, with a maximum limit of 300 s.

[5] = Toxicity after intracerebroventricular injection; format: in vivo; conditions: mice, ICV injection, even after 3 days
Description: The intracerebroventricular (ICV) injection of the ASICalgin-1 peptide was carried out in the third ventricle of the brain of mice (C57B16J, 7- to 11-week-old males) anesthetized with isoflurane (1.5%) using the following stereotaxic coordinates: −2.4 mm under the cortical surface, −0.5 mm in the anterior-posterior axis and +1.6 mm in the mediolateral axis relative to the bregma. The effects of an ICV injection of 5 μl of solution containing […] of ASICalgin-1 (0.34 nmol) were compared with the effects of 5 μl of saline solution vehicle (145 mM NaCl, 5 mM KCl, 2 mM CaCl2, 10 mM HEPES, pH 7.4, 0.05% bovine serum albumin) naxolone, an inhibitor of opioid receptors (especially μ-type), was injected subcutaneously at 2 mg/kg in 50 μl of 0.9% NaCl, ten minutes before the ICV injection of the ASICalgin-1 peptide.

[6] = target: T2, homomeric ASIC1a channels (Homo sapiens, UniProt P78348); conditions: read-out: concentration inhibiting 50% of the current produced by homomeric ASIC1a channels; cited from earlier work
T2 sequence (P78348 1-528): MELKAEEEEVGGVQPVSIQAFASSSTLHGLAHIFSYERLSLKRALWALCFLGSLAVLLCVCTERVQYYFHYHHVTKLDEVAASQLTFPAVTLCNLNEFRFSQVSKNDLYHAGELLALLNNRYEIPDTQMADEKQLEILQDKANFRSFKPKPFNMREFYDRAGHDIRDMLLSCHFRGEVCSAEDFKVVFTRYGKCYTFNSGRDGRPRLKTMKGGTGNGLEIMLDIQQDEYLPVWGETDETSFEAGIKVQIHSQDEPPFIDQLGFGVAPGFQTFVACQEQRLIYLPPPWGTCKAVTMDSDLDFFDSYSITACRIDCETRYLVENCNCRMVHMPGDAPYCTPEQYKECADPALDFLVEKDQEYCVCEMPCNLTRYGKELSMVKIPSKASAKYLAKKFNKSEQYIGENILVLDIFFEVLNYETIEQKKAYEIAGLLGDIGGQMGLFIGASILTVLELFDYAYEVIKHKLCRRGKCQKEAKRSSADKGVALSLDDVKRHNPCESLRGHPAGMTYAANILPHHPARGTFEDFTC

[7] = mice, central injection; cited from earlier work

APETx2
pIC50 [1]: 5.70
analgesic effect on post-operative pain ([2]; intra-operative application): induces an analgesic effect
analgesic effect on inflammatory and acidic pain ([2]; peripheral (subcutaneous) injection): induces an analgesic effect

LKCFQHGKVVTCHRDMKFCYHNTGMPFRNLKLILQGCSSSCSETENNKCCSTDRCNK (disulfide 3-19, 12-37, 41-49, 50-55) [ASICalgin-2]
toxicity: behavior (motor, balance, apathy, paralysis, convulsion), deaths [3]: induces no modification of behavior

LKCYQHGKVVTCHRDMKFCYHNTGMPFRNLKLILQGCSSSCSETENNKCCSTDRCNK (disulfide 3-19, 12-37, 41-49, 50-55) [ASICalgin-1]
effect on motor activity, latency to fall [4]: does not induce any significant effect
toxicity: behavior (motor, balance, apathy, paralysis, convulsion), deaths [3]: induces no modification of behavior
toxicity: behavior (motor, balance, apathy, paralysis, convulsion), deaths [5]: induces no modification of behavior

PcTx1
pIC50 [6]: 9.00
analgesic effect [7]: powerful analgesic effect
